Laboratory results published in the supplement of paper PMC10307832.

Experiments:
Test in all cases: relative viability (nuclei count vs DMSO), 5 days (fraction); higher = more cells survive
[1] = test system: LC-2-ad
In short: (§1)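 Relative viability is defined as nuclei in treated wells over nuclei in vehicle wells. Duplicate plates were run and medians reported. Lung cancer cell lines in 1536-well plates were dosed by pin tool one day after seeding, with one drug or with a fixed anchor-drug dose plus five library-drug doses (not always all listed) in √10 steps, and nuclei were counted after 5 days.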

[2] = test system: HCC-15
In short: as §1

[3] = test system: SW 1573
In short: as §1

[4] = test system: NCI-H2126
In short: as §1

[5] = test system: NCI-H3122
In short: as §1

[6] = test system: NCI-H1755
In short: as §1

[7] = test system: HOP-62
In short: as §1

[8] = test system: LU99A
In short: as §1

[9] = test system: NCI-H1734
In short: as §1

[10] = test system: NCI-H1395
In short: as §1

[11] = test system: NCI-H1437
In short: as §1

[12] = test system: NCI-H2023
In short: as §1

[13] = test system: NCI-H650
In short: as §1

[14] = test system: NCI-H727
In short: as §1

[15] = test system: NCI-H1915
In short: as §1

[16] = test system: NCI-H358
In short: as §1

[17] = test system: HCC-44
In short: as §1

[18] = test system: NCI-H1563
In short: as §1

[19] = test system: BEN
In short: as §1

[20] = test system: EMC-BAC-2
In short: as §1

`Cc1csc(=NC2CCCCC2)n1/N=C/c1ccc(O)c(O)c1O` [MIM1] + C[C@]1(O)C[C@@H](c2nc(-c3ccc4ccc(-c5ccccc5)nc4c3)c3c(N)nccn32)C1 [Linsitinib] (partner 1 µM) was tested, and the relative viability ([1]; first compound 0.2 µM) was 0.794, the relative viability ([1]; first compound 0.6325 µM) was 0.744 and the relative viability ([1]; first compound 2 µM) was 0.856. For the same compound, the relative viability ([1]; first compound 6.325 µM) was 0.547, the relative viability ([1]; first compound 20 µM) was 0.132 and the relative viability ([2]; first compound 0.2 µM) was 0.901. The relative viability ([2]; first compound 0.6325 µM) was 0.808, the relative viability ([2]; first compound 2 µM) was 0.941 and the relative viability ([2]; first compound 6.325 µM) was 0.476. For the same compound, the relative viability ([2]; first compound 20 µM) was 0.211, the relative viability ([3]; first compound 0.2 µM) was 0.872 and the relative viability ([3]; first compound 0.6325 µM) was 0.792. It also gave a relative viability ([3]; first compound 2 µM) of 0.678, a relative viability ([3]; first compound 6.325 µM) of 0.767 and a relative viability ([3]; first compound 20 µM) of 0.607. The relative viability ([4]; first compound 0.2 µM) was 0.715, the relative viability ([4]; first compound 0.6325 µM) was 0.695 and the relative viability ([4]; first compound 2 µM) was 0.744. For the same compound, the relative viability ([4]; first compound 6.325 µM) was 0.707, the relative viability ([4]; first compound 20 µM) was 0.702 and the relative viability ([5]; first compound 0.2 µM) was 0.959. The relative viability ([5]; first compound 0.6325 µM) was 1.08, the relative viability ([5]; first compound 2 µM) was 1.12 and the relative viability ([5]; first compound 6.325 µM) was 0.926. For the same compound, the relative viability ([5]; first compound 20 µM) was 0.396, the relative viability ([6]; first compound 0.2 µM) was 1.02 and the relative viability ([6]; first compound 0.6325 µM) was 0.996. For the same compound, the relative viability ([6]; first compound 2 µM) was 1.03, the relative viability ([6]; first compound 6.325 µM) was 0.71 and the relative viability ([6]; first compound 20 µM) was 0.724. It also gave a relative viability ([7]; first compound 0.2 µM) of 0.977, a relative viability ([7]; first compound 0.6325 µM) of 1.04 and a relative viability ([7]; first compound 2 µM) of 0.905. The relative viability ([7]; first compound 6.325 µM) was 0.658, the relative viability ([7]; first compound 20 µM) was 0.936 and the relative viability ([8]; first compound 0.2 µM) was 0.528. For the same compound, the relative viability ([8]; first compound 0.6325 µM) was 0.57, the relative viability ([8]; first compound 2 µM) was 0.489 and the relative viability ([8]; first compound 6.325 µM) was 0.545. It also gave a relative viability ([8]; first compound 20 µM) of 0.284, a relative viability ([9]; first compound 0.2 µM) of 0.829 and a relative viability ([9]; first compound 0.6325 µM) of 1.01. For the same compound, the relative viability ([9]; first compound 2 µM) was 0.853, the relative viability ([9]; first compound 6.325 µM) was 0.754 and the relative viability ([9]; first compound 20 µM) was 0.422. For the same compound, the relative viability ([10]; first compound 0.2 µM) was 0.927, the relative viability ([10]; first compound 0.6325 µM) was 1.03 and the relative viability ([10]; first compound 2 µM) was 1.07. For the same compound, the relative viability ([10]; first compound 6.325 µM) was 0.606, the relative viability ([10]; first compound 20 µM) was 0.355 and the relative viability ([11]; first compound 0.2 µM) was 0.967. It also gave a relative viability ([11]; first compound 0.6325 µM) of 0.985, a relative viability ([11]; first compound 2 µM) of 1.05 and a relative viability ([11]; first compound 6.325 µM) of 0.507. It also gave a relative viability ([11]; first compound 20 µM) of 0.151, a relative viability ([12]; first compound 0.2 µM) of 0.625 and a relative viability ([12]; first compound 0.6325 µM) of 0.739. It also gave a relative viability ([12]; first compound 2 µM) of 0.615, a relative viability ([12]; first compound 6.325 µM) of 0.482 and a relative viability ([12]; first compound 20 µM) of 0.443. The relative viability ([13]; first compound 0.2 µM) was 0.964, the relative viability ([13]; first compound 0.6325 µM) was 0.843 and the relative viability ([13]; first compound 2 µM) was 0.938. For the same compound, the relative viability ([13]; first compound 6.325 µM) was 0.824, the relative viability ([13]; first compound 20 µM) was 0.234 and the relative viability ([14]; first compound 0.2 µM) was 0.311. The relative viability ([14]; first compound 0.6325 µM) was 0.284, the relative viability ([14]; first compound 2 µM) was 0.276 and the relative viability ([14]; first compound 6.325 µM) was 0.278. The relative viability ([14]; first compound 20 µM) was 0.266, the relative viability ([15]; first compound 0.2 µM) was 1.09 and the relative viability ([15]; first compound 0.6325 µM) was 1.03. For the same compound, the relative viability ([15]; first compound 2 µM) was 1.08, the relative viability ([15]; first compound 6.325 µM) was 0.978 and the relative viability ([15]; first compound 20 µM) was 0.872. The relative viability ([16]; first compound 0.2 µM) was 0.703, the relative viability ([16]; first compound 0.6325 µM) was 0.651 and the relative viability ([16]; first compound 2 µM) was 0.694. For the same compound, the relative viability ([16]; first compound 6.325 µM) was 0.324, the relative viability ([16]; first compound 20 µM) was 0.341 and the relative viability ([17]; first compound 0.2 µM) was 0.67. It also gave a relative viability ([17]; first compound 0.6325 µM) of 0.713, a relative viability ([17]; first compound 2 µM) of 0.555 and a relative viability ([17]; first compound 6.325 µM) of 0.555. The relative viability ([17]; first compound 20 µM) was 0.141, the relative viability ([18]; first compound 0.2 µM) was 1.13 and the relative viability ([18]; first compound 0.6325 µM) was 1.29. For the same compound, the relative viability ([18]; first compound 2 µM) was 1.1, the relative viability ([18]; first compound 6.325 µM) was 0.977 and the relative viability ([18]; first compound 20 µM) was 0.957. It also gave a relative viability ([19]; first compound 0.2 µM) of 0.888, a relative viability ([19]; first compound 0.6325 µM) of 0.877 and a relative viability ([19]; first compound 2 µM) of 0.981. It also gave a relative viability ([19]; first compound 6.325 µM) of 0.826, a relative viability ([19]; first compound 20 µM) of 0.42 and a relative viability ([20]; first compound 0.2 µM) of 0.776. The relative viability ([20]; first compound 0.6325 µM) was 0.822, the relative viability ([20]; first compound 2 µM) was 0.784 and the relative viability ([20]; first compound 6.325 µM) was 0.757. The relative viability ([20]; first compound 20 µM) was 0.328.
